Tested on: MiaPaCa cells
Assay: MiaPaCa orthotopic NOD-SCID mice model
[1] = mAb 5 mg/kg i.v., gemcitabine 50 mg/kg i.p.

Description: Specifically, experimental design of tumor growth inhibition in vivo. MiaPaCa cells (5×10^6) were injected into pancreas of NOD-SCID mice at Day 0. […] Mice were sacrificed on day 34. […] Since fibrosis and angiogenesis are two major issues during tumor progression, we compared the fibrosis and angiogenesis level within each groups.

With Nc1ccn([C@@H]2O[C@H](CO)[C@@H](O)C2(F)F)c(=O)n1 [gemcitabine, reference compound] the “level of CHI3L1 in intratumoral region and plasma” value (end of experiment) was “lower than IgG control group”, the “angiogenesis indicated by CD31 expression” value [1] was “decreased in every treatment groups” and the body weight [1] was “without significant weight loss”. The tumor size (mAb 5 mg/kg i.v., gemcitabine 50 mg/kg i.p., Day 7, 14, 21, 28, sacrificed day 34) was “smaller than IgG control group”.
